# Test results taken from patent US20100075965A1, “PI3 KINASE INHIBITORS AND METHODS OF THEIR USE” (Novartis AG, priority 2006, published 2010).
# Read-outs that look alike come from different tables or passages of the source.
# Assays:
# human PI3Kγ (GST-p110γ) = molecular target: T1, human PI3Kγ (GST-p110γ) (Homo sapiens, UniProt P48736); assay: PI3K scintillation proximity kinase assay, gamma isoform; format: biochemical; details: PI3 kinase isoform gamma
# T1 construct: Residues 38-1102 of human PI3Kγ are subcloned into the BamH1 and EcoR1 sites of the transfer vector pAcG2T; made in house; host or cells: Sf9 (Spodoptera frugiperda) insect cells, baculovirus
# T1 sequence (P48736 38-1102): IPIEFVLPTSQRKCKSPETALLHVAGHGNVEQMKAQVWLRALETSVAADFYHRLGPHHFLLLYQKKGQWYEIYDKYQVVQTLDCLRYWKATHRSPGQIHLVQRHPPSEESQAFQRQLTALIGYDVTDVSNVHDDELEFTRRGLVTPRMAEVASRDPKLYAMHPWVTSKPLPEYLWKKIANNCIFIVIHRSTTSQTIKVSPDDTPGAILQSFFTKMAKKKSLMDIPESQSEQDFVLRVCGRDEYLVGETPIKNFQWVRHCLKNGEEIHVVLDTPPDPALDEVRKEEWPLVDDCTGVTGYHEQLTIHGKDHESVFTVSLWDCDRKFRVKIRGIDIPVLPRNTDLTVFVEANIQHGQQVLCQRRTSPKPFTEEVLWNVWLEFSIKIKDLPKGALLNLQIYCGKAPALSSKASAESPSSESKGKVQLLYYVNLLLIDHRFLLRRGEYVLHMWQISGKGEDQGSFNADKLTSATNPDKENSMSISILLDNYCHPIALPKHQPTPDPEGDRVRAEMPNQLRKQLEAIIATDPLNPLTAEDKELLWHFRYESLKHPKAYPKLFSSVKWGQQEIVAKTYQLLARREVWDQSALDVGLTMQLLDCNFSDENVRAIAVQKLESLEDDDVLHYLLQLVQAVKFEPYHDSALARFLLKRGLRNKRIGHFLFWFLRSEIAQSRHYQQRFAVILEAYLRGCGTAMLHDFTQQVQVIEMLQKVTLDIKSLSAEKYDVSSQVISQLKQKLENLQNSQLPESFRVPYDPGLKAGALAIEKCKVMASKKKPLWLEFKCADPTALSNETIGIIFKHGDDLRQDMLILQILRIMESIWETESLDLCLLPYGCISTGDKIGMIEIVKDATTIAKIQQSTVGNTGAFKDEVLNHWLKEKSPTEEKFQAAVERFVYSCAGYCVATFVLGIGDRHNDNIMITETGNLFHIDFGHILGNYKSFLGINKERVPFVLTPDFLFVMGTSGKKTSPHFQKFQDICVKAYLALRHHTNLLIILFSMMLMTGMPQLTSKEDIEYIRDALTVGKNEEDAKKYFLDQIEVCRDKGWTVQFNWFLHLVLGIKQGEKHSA
# Description: (§1) Activity of compounds in Table 4, expressed as Ki the dissociation constant for inhibition binding, were determined using the following test procedures.
# (§2) Baculovirus expressing different fragments of PI3Kγ fused to GST have been previously described by Stoyanova, S., Bulgarelli-Leva, G., Kirsch, C., Hanck, T., Klinger, R., Wetzker, R., Wymann, M. P. (1997) Lipid- and protein kinase activities of G protein-coupled PI 3-kinase gamma: structure-activity analysis and interactions with wortmannin. Biochem. J., 324:489. Residues 38-1102 of human PI3Kγ are subcloned into the BamH1 and EcoR1 sites of the transfer vector pAcG2T (Pharmingen) to create a GST-P13Kγ lacking the first 37 residues of PI3Kγ. To express the recombinant protein, Sf9 (Spodoptera frugiperda 9) insect cells are routinely maintained at densities between 3×10^5 and 3×10^6 cells/ml in serum containing TNMFH medium (Sigma). Sf9 cells, at a density of 2×10^6 are infected with human GST-PI3γΔ34 baculovirus at a multiplicity of infection (m.o.i.) of 1 for 72 hours. The infected cells are harvested by centrifugation at 1400 g for 4 minutes at 4° C. and the cell pellets are frozen at −80° C. Both Sf9 and Sf21 cells work equally well. […] Cell lysate (supernatant) is added (usually as 50 ml lysate to 1 ml GST resin in 50 ml tubes) and gently rotated on a mixer at 4° C. for 2-3 hours. The unbound flow through sample is collected by centrifugation at 1000 g for 5 minutes at 4° C. using a DENLEY™ centrifuge. The 1 ml GST resin containing bound material is transferred to a 15 ml FALCON™ centrifuge tube for subsequent washing and elution steps. Firstly a series of 3 cycles of washings (mixing by gentle inversion) is performed with 15 ml ice cold wash Buffer A (50 mM Tris-HCl pH 7.5, 1% Triton X-100, 2 mM DTT) interspersed with centrifugation at 1000 g for 5 minutes at 4° C. A final single wash step is performed with 15 ml ice cold wash Buffer B (50 mM Tris-HCl pH 7.5, 2 mM DTT) and then centrifuged at 1000 g for 5 minutes at 4° C. The washed GST resin is finally eluted with 4 cycles of 1 ml ice cold elution buffer (50 mM Tris-HCl pH 7.5, 10 mM reduced glutathione, 2 mM DTT, 150 mM NaCl, 1 mM NaF, 50% ethylene glycol and protease inhibitors) interspersed with centrifugation at 1000 g for 5 minutes at 4° C. Samples are aliquoted and stored at −20° C. The isoforms in Table 4 were similarly purified.
# (§3) An in vitro kinase assay was established that measures the transfer of the terminal phosphate of adenosine triphosphate to phosphatidylinositol. The kinase reaction is performed in a white 96 well microtitre plate as a Scintillation Proximity Assay. […] The plate is incubated at room temperature for 60 minutes and the reaction terminated by the adding 150 μl of WGA-bead stop solution (40 mM Tris, 200 mM NaCl, 2 mM EGTA, 1.3 mM ethylene diamine tetraacetic acid (EDTA), 2.6 μM ATP and 0.5 mg of Wheat Germ Agglutinin-SPA beads (Amersham Biosciences) to each well. The plate is sealed, incubated at room temperature for 60 minutes, centrifuged at 1200 rpm and then counted for 1 minute using a scintillation counter. Total activity is determined by adding 10 μl of 5% dimethylsulphoxide (DMSO) and non-specific activity is determined by adding 10 μl 50 mM EDTA in place of the test compound.
# PI3 kinase isoform alpha = molecular target: T2, PI3 kinase isoform alpha (Homo sapiens, UniProt P42336); assay: PI3K scintillation proximity kinase assay, alpha isoform; format: biochemical
# T2 construct: made in house
# T2 sequence (P42336 whole entry, canonical isoform): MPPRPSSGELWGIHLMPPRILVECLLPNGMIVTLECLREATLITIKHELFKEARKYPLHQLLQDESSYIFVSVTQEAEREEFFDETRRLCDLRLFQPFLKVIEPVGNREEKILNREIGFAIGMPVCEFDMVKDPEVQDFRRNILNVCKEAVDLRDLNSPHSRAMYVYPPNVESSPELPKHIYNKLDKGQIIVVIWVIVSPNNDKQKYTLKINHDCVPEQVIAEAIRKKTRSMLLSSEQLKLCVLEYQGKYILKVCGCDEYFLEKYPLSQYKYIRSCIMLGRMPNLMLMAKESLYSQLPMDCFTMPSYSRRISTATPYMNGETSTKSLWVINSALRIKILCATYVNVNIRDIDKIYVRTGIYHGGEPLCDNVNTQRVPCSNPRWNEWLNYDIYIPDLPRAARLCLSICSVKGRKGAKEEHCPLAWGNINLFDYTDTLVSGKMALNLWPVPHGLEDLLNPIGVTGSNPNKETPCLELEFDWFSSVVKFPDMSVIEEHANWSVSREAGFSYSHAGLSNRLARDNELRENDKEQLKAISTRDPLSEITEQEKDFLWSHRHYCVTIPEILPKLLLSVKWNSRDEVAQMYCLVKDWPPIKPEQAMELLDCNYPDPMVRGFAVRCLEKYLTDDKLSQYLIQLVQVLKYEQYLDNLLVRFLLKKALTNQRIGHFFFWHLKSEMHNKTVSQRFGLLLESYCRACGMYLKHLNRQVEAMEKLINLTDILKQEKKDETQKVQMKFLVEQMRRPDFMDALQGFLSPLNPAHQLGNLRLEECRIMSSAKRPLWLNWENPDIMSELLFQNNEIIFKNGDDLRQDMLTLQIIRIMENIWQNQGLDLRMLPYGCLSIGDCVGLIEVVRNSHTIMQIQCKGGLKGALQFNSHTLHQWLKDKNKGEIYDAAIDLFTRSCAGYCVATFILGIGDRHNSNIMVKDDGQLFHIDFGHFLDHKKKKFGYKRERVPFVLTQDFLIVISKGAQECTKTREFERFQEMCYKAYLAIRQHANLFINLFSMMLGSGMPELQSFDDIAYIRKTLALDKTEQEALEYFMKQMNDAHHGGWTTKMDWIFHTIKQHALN
# Description: as §1, §2, §3
# PI3 kinase isoform delta = molecular target: T3, PI3 kinase isoform delta (Homo sapiens, UniProt O00329); assay: PI3K scintillation proximity kinase assay, delta isoform; format: biochemical
# T3 construct: made in house
# T3 sequence (O00329 1-1044): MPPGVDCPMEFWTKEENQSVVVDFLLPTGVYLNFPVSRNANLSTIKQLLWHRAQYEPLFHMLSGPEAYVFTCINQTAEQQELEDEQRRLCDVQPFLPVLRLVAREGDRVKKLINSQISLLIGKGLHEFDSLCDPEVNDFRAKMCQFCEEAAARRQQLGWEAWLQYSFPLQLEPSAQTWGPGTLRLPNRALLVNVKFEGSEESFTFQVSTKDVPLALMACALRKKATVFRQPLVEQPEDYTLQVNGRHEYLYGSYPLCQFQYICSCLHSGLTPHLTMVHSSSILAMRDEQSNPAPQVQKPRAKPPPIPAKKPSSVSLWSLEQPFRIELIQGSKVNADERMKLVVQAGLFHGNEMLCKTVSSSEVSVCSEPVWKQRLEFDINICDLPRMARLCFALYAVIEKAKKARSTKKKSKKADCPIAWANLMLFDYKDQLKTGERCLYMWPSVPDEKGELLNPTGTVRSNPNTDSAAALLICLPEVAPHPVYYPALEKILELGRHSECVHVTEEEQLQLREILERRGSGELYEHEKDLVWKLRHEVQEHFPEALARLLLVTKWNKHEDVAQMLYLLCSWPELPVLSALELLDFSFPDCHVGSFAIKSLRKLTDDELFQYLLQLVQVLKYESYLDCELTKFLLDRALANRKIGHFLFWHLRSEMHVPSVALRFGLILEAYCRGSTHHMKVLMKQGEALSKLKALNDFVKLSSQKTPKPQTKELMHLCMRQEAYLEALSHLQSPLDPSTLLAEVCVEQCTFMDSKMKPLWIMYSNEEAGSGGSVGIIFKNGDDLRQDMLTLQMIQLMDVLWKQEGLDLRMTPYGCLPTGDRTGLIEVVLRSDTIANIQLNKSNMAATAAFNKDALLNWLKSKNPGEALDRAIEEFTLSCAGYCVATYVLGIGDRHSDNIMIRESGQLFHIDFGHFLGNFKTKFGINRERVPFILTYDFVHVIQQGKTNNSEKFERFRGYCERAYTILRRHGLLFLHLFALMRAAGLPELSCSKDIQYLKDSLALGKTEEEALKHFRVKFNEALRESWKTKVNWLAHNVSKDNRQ
# Description: as §1, §2, §3
# PI3 kinase isoform beta = molecular target: T4, PI3 kinase isoform beta (Homo sapiens, UniProt P42338); assay: PI3K scintillation proximity kinase assay, beta isoform; format: biochemical
# T4 construct: made in house
# T4 sequence (P42338 whole entry, canonical isoform): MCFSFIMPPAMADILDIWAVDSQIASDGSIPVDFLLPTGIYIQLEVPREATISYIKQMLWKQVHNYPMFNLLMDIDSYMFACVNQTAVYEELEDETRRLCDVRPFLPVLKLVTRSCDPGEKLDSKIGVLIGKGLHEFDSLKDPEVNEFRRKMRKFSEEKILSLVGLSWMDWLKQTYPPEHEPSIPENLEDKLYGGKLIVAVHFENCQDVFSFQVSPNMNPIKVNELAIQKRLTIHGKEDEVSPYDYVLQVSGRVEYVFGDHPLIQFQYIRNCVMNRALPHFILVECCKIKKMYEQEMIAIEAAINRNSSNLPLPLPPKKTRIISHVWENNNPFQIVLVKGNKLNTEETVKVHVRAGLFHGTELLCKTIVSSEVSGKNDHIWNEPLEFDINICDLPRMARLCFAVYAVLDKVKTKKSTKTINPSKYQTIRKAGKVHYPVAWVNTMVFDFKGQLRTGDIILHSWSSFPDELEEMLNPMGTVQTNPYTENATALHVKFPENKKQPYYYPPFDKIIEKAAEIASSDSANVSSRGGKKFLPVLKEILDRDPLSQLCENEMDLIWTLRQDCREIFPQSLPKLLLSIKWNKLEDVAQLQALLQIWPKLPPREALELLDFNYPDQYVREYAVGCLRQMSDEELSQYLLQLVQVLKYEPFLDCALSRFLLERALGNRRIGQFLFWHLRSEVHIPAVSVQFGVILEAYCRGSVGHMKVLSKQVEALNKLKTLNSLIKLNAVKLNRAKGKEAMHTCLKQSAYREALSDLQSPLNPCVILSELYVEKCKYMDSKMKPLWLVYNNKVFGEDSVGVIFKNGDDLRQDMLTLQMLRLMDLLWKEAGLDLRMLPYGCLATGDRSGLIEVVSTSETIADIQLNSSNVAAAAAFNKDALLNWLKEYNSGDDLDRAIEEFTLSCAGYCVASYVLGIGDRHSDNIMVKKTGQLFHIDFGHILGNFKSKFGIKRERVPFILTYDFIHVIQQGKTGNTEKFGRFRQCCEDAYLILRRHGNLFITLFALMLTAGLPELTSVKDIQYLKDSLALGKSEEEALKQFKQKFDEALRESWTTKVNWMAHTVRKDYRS
# Description: as §1, §2, §3
# PI3 K Alpha = PI3 K Alpha (Homo sapiens, UniProt P42336); assay: PI3 kinase phosphorylation assays (homogenous solution phase, one step solid phase, ATP depletion/KinaseGlo); format: biochemical; details: read-out: PI3K Alpha IC50
# PI3 K Alpha, sequence (P42336 whole entry): as the sequence (P42336 whole entry, canonical isoform) above
# PI3 K Alpha, sequence (P27986 whole entry partner): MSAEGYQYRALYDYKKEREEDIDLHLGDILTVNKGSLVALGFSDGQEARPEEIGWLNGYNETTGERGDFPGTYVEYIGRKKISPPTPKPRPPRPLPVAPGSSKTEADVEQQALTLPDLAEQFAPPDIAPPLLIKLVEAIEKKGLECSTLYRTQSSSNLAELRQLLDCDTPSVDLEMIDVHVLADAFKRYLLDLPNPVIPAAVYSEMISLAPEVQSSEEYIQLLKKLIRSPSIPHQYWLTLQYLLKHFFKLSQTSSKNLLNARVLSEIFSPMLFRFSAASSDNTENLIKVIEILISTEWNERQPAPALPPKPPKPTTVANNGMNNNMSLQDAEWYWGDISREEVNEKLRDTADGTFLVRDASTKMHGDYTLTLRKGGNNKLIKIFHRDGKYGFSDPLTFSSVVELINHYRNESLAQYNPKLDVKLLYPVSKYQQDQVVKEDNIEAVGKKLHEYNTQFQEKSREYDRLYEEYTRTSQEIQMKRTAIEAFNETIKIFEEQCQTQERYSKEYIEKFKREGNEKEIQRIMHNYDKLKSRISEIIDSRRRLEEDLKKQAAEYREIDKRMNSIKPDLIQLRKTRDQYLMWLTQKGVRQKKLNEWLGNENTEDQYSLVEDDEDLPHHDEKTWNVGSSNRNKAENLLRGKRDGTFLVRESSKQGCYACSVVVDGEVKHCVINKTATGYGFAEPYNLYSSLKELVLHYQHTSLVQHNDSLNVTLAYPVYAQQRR
# [1] = tested on: pSer473-Akt in A2780 cells; assay: pSer473 Akt assay to monitor PI3K pathway in A2780 cells (MSD); format: cell-based; details: Homo sapiens
# How it was run: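 EC50 is derived from percent inhibition of Akt Ser473 phosphorylation, normalised to total Akt and compared with DMSO-only wells, read by MSD immunoassay. Lysates came from A2780 cells plated overnight at 15,000/well and exposed to compound for one hour at 37 °C.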
# A2780 cells = assay: Viability assay in A2780 (Cell Titer Glo); format: cell-based, human; details: Homo sapiens
# How it was run: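 EC50 values come from Cell Titer Glo luminescence after 72 hrs of compound exposure at 37° C, run in duplicate. A2780 cells were plated at 1,000 per well in DMEM with 10% FBS and dosed with 3-fold serial dilutions.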
# [2] = A2780 cells, read-out: A2780 pAKT 473 EC50
# [3] = A2780 cells, read-out: A2780 Cell prolif. EC50
SMILES,Ki (human PI3Kγ (GST-p110γ)) [nM],Ki (PI3 kinase isoform alpha) [nM],Ki (PI3 kinase isoform delta) [nM],Ki (PI3 kinase isoform beta) [nM],IC50 (PI3 K Alpha) [nM],"EC50 [1, 2] [nM]",EC50 (A2780 cells; [3]) [nM],"EC50 ([1]; A2780, read-out: A2780 pAKT 473 EC50) [nM]","EC50 (A2780 cells; A2780, read-out: A2780 Cell prolif. EC50) [nM]"
"CCc1nnn(CCNC(=O)Nc2cn3cc(-c4cnc(N)c(C(F)(F)F)c4)ccc3n2)n1 [Example 3-4, 1-[6-(6-Amino-5-trifluoromethyl-py-ridin-3-yl)-imidazo[1,2-a]pyridin-2-yl]-3-[2-(5-ethyl-tetrazol-2-yl)-ethyl]-urea]",< 1000,< 1000,< 1000,< 1000,,,,,
"CC(C)n1nnc(CCNC(=O)Nc2cn3cc(-c4ccc(N)nc4)ccc3n2)n1 [Example 3-3, 1-[6-(6-Amino-pyridin-3-yl)-imidazo[1,2-a]pyridin-2-yl]-3-[2-(2-isopropyl-2H-tetrazol-5-yl)-ethyl]-urea]",< 1000,< 10000,< 1000,< 1000,,,,,
"Nc1ncc(-c2ccc3nc(NC(=O)NCCn4nnc(C5CC5)n4)cn3c2)cc1C(F)(F)F [Example 3-5, 1-[6-(6-Amino-5-trifluoromethyl-py-ridin-3-yl)-imidazo[1,2-a]pyridin-2-yl]-3-[2-(5-cyclopropyl-tetrazol-2-yl)-ethyl]-urea]",< 1000,< 1000,< 1000,< 1000,,,,,
"CCn1nnc(CCNC(=O)Nc2cn3cc(-c4cnc(N)c(C(F)(F)F)c4)ccc3n2)n1 [Example 3-1, 1-[6-(6-Amino-5-trifluoromethyl-pyridin-3-yl)-imidazo[1,2-a]pyridin-2-yl]-3-[2-(2-ethyl-2H-tetrazol-5-yl)-ethyl]-urea]",< 1000,< 1000,< 1000,< 1000,,,,,
"CC(=O)Nc1cn2nc(-c3cnc(N)c(-c4ccccc4C(F)(F)F)c3)ccc2n1 [Example 53, N-(6-(6-amino-5-(2-(trifluoromethyl)phenyl)pyridin-3-yl)imidazo[1,2-b]pyridazin-2-yl)acetamide]",,,,,< 1000,< 1000,< 1000,,
"C/C=C/c1c(NC(C)=O)nc2ccc(-c3cnc(N)c(C(F)(F)F)c3)cn12 [Example 193, (E)-N-(6-(6-amino-5-(trifluoromethyl)pyridin-3-yl)-3-(prop-1-enyl)imidazo[1,2-a]pyridin-2-yl)acetamide]",,,,,< 1000,< 10000,< 10000,,
"CC(=O)Nc1cn2cc(-c3cnc(N)c(-c4ccccc4N4CCOCC4)c3)ccc2n1 [Example 105, N-(6-(6-amino-5-(2-morpholino-phenyl)pyridin-3-yl)imidazo[1,2-a]pyridin-2-yl)acetamide]",,,,,< 1000,< 1000,< 1000,,
"CC(=O)Nc1cn2cc(-c3cnc(N)cc3F)ccc2n1 [Example 29, N-[6-(6-Amino-4-fluoro-pyridin-3-yl)-imidazo[1,2-a]pyridin-2-yl]-acetamide]",,,,,< 1000,< 10000,< 25000,,
"CC(=O)Nc1cn2nc(-c3cnc(N)c(-c4ccn(C)n4)c3)ccc2n1 [Example 95, N-(6-(6-amino-5-(1-methyl-1H-pyrazol-3-yl)pyridin-3-yl)imidazo[1,2-b]pyridazin-2-yl)acetamide]",,,,,< 1000,< 1000,< 1000,,
"CC(=O)Nc1cn2cc(-c3cnc(N)c(-c4ccccc4OC(F)(F)F)c3)ccc2n1 [Example 121, N-(6-(6-amino-5-(2-(trifluoromethoxy)phenyl)pyridin-3-yl)imidazo[1,2-a]pyridin-2-yl)acetamide]",,,,,< 1000,< 1000,< 10000,,
"CNCC(=O)Nc1cn2cc(-c3cnc(N)c(C(F)(F)F)c3)ccc2n1 [Example 80, N-(6-(6-amino-5-(trifluoromethyl)pyridin-3-yl)imidazo[1,2-a]pyridin-2-yl)-2-(methylamino) acetamide]",,,,,< 1000,< 1000,< 1000,,
"CC(=O)Nc1nc2ccc(-c3cnc(N)c(C(F)(F)F)c3)cn2c1Br [Example 11, N-[6-(6-Amino-5-trifluoromethyl-pyridin-3-yl)-3-bromo-imidazo[1,2-a]pyridin-2-yl]-acetamide]",,,,,< 1000,,,< 10000,< 25000
"CC(=O)Nc1cn2cc(-c3cnc(N)c(C(F)(F)F)c3)cc(F)c2n1 [Example 190, N-(6-(6-amino-5-(trifluoromethyl)pyridin-3-yl)-8-fluoroimidazo [1,2-a]pyridin-2-yl)acetamide]",,,,,< 1000,< 1000,< 10000,,
"CC(C)n1nnc(CCNC(=O)Nc2cn3cc(-c4cnc(N)c(C(F)(F)F)c4)ccc3n2)n1 [Example 3-2, 1-[6-(6-Amino-5-trifluoromethyl-py-ridin-3-yl)-imidazo[1,2-a]pyridin-2-yl]-3-[2-(2-isopropyl-2H-tetrazol-5-yl)-ethyl]-urea]",< 1000,< 1000,< 1000,< 1000,,,,,
